Reference: patent US20220281848A1, “PYRAZOLE-SUBSTITUTED PYRROLIDINONES AS HERBICIDES” (FMC Corporation, priority 2019, published 2022)

Assays:
Assay type in all cases: in vivo
Conditions in all cases: 19 to 21 days
[1] = test system: johnsongrass (Sorghum halepense); assay: Test B preemergence, johnsongrass
Source text: (§1) Seeds of plant species selected from blackgrass (Alopecurus myosuroides), Italian ryegrass (Lolium multiflorum), wheat, winter (winter wheat, Triticum aestivum), corn (Zea mays), large (Lg) crabgrass (Digitaria sanguinalis), giant foxtail (Setaria faberi), johnsongrass (Sorghum halepense), ragweed (common ragweed, Ambrosia elatior), soybean (Glycine max), barnyardgrass (Echinochloa crus-galli), waterhemp (common waterhemp, Amaranthus rudis), palmer pigweed (Amaranthus palmeri), and surinam grass (Brachiaria decumbens), were planted into a silt loam soil and treated preemergence with test chemicals formulated in a non-phytotoxic solvent mixture which included a surfactant.
(§2) Treated plants and controls were maintained in a greenhouse for 19 to 21 days, after which time all species were compared to controls and visually evaluated. Plant response ratings, summarized in Table B, are based on a scale of 0 to 100 where 0 is no effect and 100 is complete control.

[2] = test system: ragweed (common ragweed, Ambrosia elatior); assay: Test B preemergence, ragweed
Source text: as §1, §2

soybean (Glycine max) = assay: Test C preemergence, soybean
Source text: (§3) Seeds of plant species selected from corn (Zea mays), soybean (Glycine max), velvetleaf (Abutilon theophrasti), palmer pigweed (Amaranthus palmeri), waterhemp (common waterhemp, Amaranthus rudis), surinam grass (Brachiaria decumbens), large (Lg) crabgrass (Digitaria sanguinalis), fall panicum (Panicum dichotomiflorum), giant foxtail (Setaria faberi), ragweed (common ragweed, Ambrosia elatior), barnyardgrass (Echinochloa crus-galli), E. Black Nightshade (Solanum ptycanthum), and horseweed (Conyza canadensis), were planted into a silt loam soil and treated preemergence with test chemicals formulated in a non-phytotoxic solvent mixture which included a surfactant.
(§4) Treated plants and controls were maintained in a greenhouse for 19 to 21 days, after which time all species were compared to controls and visually evaluated. Plant response ratings, summarized in Table C, are based on a scale of 0 to 100 where 0 is no effect and 100 is complete control.

[3] = test system: large (Lg) crabgrass (Digitaria sanguinalis); assay: Test C preemergence, large crabgrass
Source text: as §3, §4

## CN1C[C@H](c2cc(C(F)(F)F)n(C)n2)[C@@H](C(=O)Nc2cccc(F)c2F)C1=O [Compound 13, (3S,4R)—N-(2,3-difluorophenyl)-1-methyl-4-[1-methyl-5-(trifluoromethyl)-1H-pyrazol-3-yl]-2-oxo-3-pyrrolidinecarboxamide]
[1]; 16 g ai/ha Preemergence
  Plant response rating (0 no effect, 100 complete control) Johnsongrass: 0
[1]; 31 g ai/ha Preemergence
  Plant response rating (0 no effect, 100 complete control) Johnsongrass: 8
[1]; 62 g ai/ha Preemergence
  Plant response rating (0 no effect, 100 complete control) Johnsongrass: 15
[1]; 125 g ai/ha Preemergence
  Plant response rating (0 no effect, 100 complete control) Johnsongrass: 55
[2]; 16 g ai/ha Preemergence
  Plant response rating (0 no effect, 100 complete control) Ragweed: 0
[2]; 31 g ai/ha Preemergence
  Plant response rating (0 no effect, 100 complete control) Ragweed: 0
[2]; 62 g ai/ha Preemergence
  Plant response rating (0 no effect, 100 complete control) Ragweed: 0
[2]; 125 g ai/ha Preemergence
  Plant response rating (0 no effect, 100 complete control) Ragweed: 0
Soybean (Glycine max); 4 g ai/ha Preemergence
  Plant response rating (0 no effect, 100 complete control) Soybean: 0
Soybean (Glycine max); 8 g ai/ha Preemergence
  Plant response rating (0 no effect, 100 complete control) Soybean: 0
Soybean (Glycine max); 16 g ai/ha Preemergence
  Plant response rating (0 no effect, 100 complete control) Soybean: 0
Soybean (Glycine max); 31 g ai/ha Preemergence
  Plant response rating (0 no effect, 100 complete control) Soybean: 0
Soybean (Glycine max); 62 g ai/ha Preemergence
  Plant response rating (0 no effect, 100 complete control) Soybean: 0
Soybean (Glycine max); 125 g ai/ha Preemergence
  Plant response rating (0 no effect, 100 complete control) Soybean: 0
[3]; 4 g ai/ha Preemergence
  Plant response rating (0 no effect, 100 complete control) Crabgrass, Large: 70
[3]; 8 g ai/ha Preemergence
  Plant response rating (0 no effect, 100 complete control) Crabgrass, Large: 89
[3]; 16 g ai/ha Preemergence
  Plant response rating (0 no effect, 100 complete control) Crabgrass, Large: 98
[3]; 31 g ai/ha Preemergence
  Plant response rating (0 no effect, 100 complete control) Crabgrass, Large: 98
[3]; 62 g ai/ha Preemergence
  Plant response rating (0 no effect, 100 complete control) Crabgrass, Large: 98
[3]; 125 g ai/ha Preemergence
  Plant response rating (0 no effect, 100 complete control) Crabgrass, Large: 98
